Results taken from patent publication US20220340875A1, “METHODS OF CULTURING AND/OR EXPANDING STEM CELLS AND/OR LINEAGE COMMITTED PROGENITOR CELLS USING AMIDO COMPOUNDS” (IDEAYA BIOSCIENCES, INC., priority 2018, published 2022).

The compounds below were run against T1, hAhR (Homo sapiens, UniProt P35869) (assay: AhR DRE-luciferase reporter transcriptional assay, antagonist mode (TCDD-induced)). Settings: HEPG2 DRE-Luc cells, 3 nM TCDD, 24 hour incubation, relative IC50.
T1 construct: Stably integrated DRE-luciferase cell lines were generated by transducing the both cell lines with Cignal XRE luciferase reporter (Qiagen) lentiviral particles; endogenous in cells
T1 sequence (P35869 11-848): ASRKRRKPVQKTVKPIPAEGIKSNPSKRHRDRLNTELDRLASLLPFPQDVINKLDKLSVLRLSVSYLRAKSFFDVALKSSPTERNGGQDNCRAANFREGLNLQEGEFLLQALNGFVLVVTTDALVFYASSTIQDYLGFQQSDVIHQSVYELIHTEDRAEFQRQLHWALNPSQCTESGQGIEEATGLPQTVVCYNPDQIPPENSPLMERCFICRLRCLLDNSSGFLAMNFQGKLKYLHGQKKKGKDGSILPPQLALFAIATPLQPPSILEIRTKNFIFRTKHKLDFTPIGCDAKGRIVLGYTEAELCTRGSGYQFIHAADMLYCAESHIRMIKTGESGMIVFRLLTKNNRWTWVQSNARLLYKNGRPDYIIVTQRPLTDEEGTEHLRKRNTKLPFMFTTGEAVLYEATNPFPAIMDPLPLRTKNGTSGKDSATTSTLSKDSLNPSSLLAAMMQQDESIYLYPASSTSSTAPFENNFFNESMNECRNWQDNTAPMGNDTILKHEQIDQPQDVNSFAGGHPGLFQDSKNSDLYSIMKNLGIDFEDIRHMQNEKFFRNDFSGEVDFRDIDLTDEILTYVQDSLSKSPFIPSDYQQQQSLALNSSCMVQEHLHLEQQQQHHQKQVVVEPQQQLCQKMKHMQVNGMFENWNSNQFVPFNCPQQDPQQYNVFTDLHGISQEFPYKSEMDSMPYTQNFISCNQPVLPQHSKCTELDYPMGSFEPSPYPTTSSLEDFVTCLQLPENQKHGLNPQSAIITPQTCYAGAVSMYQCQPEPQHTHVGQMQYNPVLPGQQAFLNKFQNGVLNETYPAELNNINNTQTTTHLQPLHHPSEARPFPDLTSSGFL
Type: cell-based
Experimental: HEPG2 and HEPA1C1C7 cells were maintained in MEM and αMEM without nucleosides supplemented with 10% heat inactivated FBS respectively. Stably integrated DRE-luciferase cell lines were generated by transducing the both cell lines with Cignal XRE luciferase reporter (Qiagen) lentiviral particles according to the manufacturer protocol. For both cell lines stably integrated reporter cell lines were selected for the presence of 2 µg/mL puromycin. Following selection of stably integrated cell line pools, clonal cell lines were isolated by limiting dilution in 96-well plates. Transcriptional assays were performed by seeding 100 μL of cells at a density of 250,000 or 100,000 cells/mL, for HEPG2 and HEPA1C1C7 DRE-Luc cells respectively, into 96-well cell culture plates in OptiMEM supplemented with 0.5% heat inactivated FBS and allowed to attach overnight. For modulator assays, the compounds were added in a semi-log dose response using a D300e Digital Dispenser (Tecan) followed normalization with vehicle (DMSO). Immediately following compound addition 10 μL of 2,3,7,8-Tetrachlorodibenzo-p-dioxin (TCDD) was added to the cells to a final concentration of 3 nM or 0.3 nM for the HEPG2 and HEPA1C1C7 DRE-Luc cells respectively. Following 24 hour incubation the medium was removed and the cells were lysed in 25 μL of Reporter Lysis Buffer (Promega). Firefly luciferase activity was measured immediately following the addition of 50 μL Luciferase Assay Reagent (Promega). The percent maximal activity for each point was determined using the following equasion: (RLUsample-RLUvehicle−TCDD)/(RLUvehicle+TCDD RLUvehicle−TCDD)*100. The relative IC50, defined as the compound concentration required to reduce the TCDD induced response between the top and bottom plateau of each individual dose response curve by half, for each compound was determined using Prism 7 (GraphPad Software).

Row | Compound | IC50 [nM]
1 | Cc1cc(-c2ccc3cc(C(F)(F)F)ccc3n2)ccc1N(C)C(=O)c1ccn[nH]1 [Example 205, N-methyl-N-[2-methyl-4-[6-(trifluoromethyl)quinolin-2-yl]phenyl]-1H-pyrazole-5-carboxamide] | 500 to 1000
2 | Cc1c(NC(=O)c2ccnn2C)ccc(-c2ncc3nc(C(F)(F)F)cc(C)c3n2)c1F [Example 174, N-(3-fluoro-2-methyl-4-(8-methyl-6-(trifluoromethyl)pyrido[3,2-d]pyrimidin-2-yl)phenyl)-1-methyl-1H-pyrazole-5-carboxamide] | < 200
3 | Cc1cc(-c2ccc3cc(C(F)(F)F)cc(C)c3n2)ccc1NC(=O)c1ccnn1C [Example 203, 1-methyl-N-(2-methyl-4-(8-methyl-6-(trifluoromethyl)quinolin-2-yl)phenyl)-1H-pyrazole-5-carboxamide] | < 200
4 | Cc1cc(-c2ncc3cc(C(F)(F)F)ccc3n2)ccc1NC(=O)c1ccncc1C [Example 121, 3-methyl-N-(2-methyl-4-(6-(trifluoromethyl)quinazolin-2-yl)phenyl)isonicotinamide] | < 200
5 | Cn1nccc1C(=O)Nc1ccc(-c2ccc3cc(C(F)(F)F)ccc3n2)cc1F [Example 077, N-(2-fluoro-4-(6-(trifluoromethyl)quinolin-2-yl)phenyl)-1-methyl-1H-pyrazole-5-carboxamide] | 200 to 500
6 | Cc1cc(-c2nc3cc(C(F)(F)F)ccc3s2)ccc1NC(=O)c1ccnn1C [Example 100, 1-methyl-N-(2-methyl-4-(5-(trifluoromethyl)benzo[d]thiazol-2-yl)phenyl)-1H-pyrazole-5-carboxamide] | 200 to 500
7 | Cc1cc(-c2ccc3cccc(F)c3n2)ccc1NC(=O)c1ccnn1C [Example 018, N-(4-(8-fluoroquinolin-2-yl)-2-methylphenyl)-1-methyl-1H-pyrazole-5-carboxamide] | < 200
8 | Cc1cc(-c2ccc3cc(F)ccc3n2)ccc1NC(=O)c1cncn1C [Example 034, N-(4-(6-fluoroquinolin-2-yl)-2-methylphenyl)-1-methyl-1H-imidazole-5-carboxamide] | 500 to 1000
9 | Cc1cc(-c2ncc3nc(C(F)(F)F)cc(C)c3n2)ccc1N(C)C(=O)c1ccnn1C [Example 148, N,1-Dimethyl-N-(2-methyl-4-(8-methyl-6-(trifluoromethyl)pyrido[3,2-d]pyrimidin-2-yl)phenyl)-1H-pyrazole-5-carboxamide] | < 200
10 | Cc1cc(-c2ncc3cc(C(F)(F)F)ccc3n2)ccc1N(C)C(=O)OC(C)(C)C [Example 009, tert-butyl methyl(2-methyl-4-(6-(trifluoromethyl)quinazolin-2-yl)phenyl)carbamate] | 500 to 1000
11 | Cc1cc(-c2ccc3cncc(C)c3n2)ccc1NC(=O)c1ccnn1C [Example 059, 1-methyl-N-(2-methyl-4-(8-methyl-1,6-naphthyridin-2-yl)phenyl)-1H-pyrazole-5-carboxamide] | 200 to 500
12 | Cc1cc(C(F)(F)F)nc2cnc(-c3ccc(NC(=O)C4CCOCC4)c(F)c3)nc12 [Example 186, N-(2-fluoro-4-(8-methyl-6-(trifluoromethyl)pyrido[3,2-d]pyrimidin-2-yl)phenyl)tetrahydro-2H-pyran-4-carboxamide] | 1000 to 10000
13 | Cc1cc(-c2ccc3cccc(C)c3n2)ccc1NC(=O)c1ccnn1C [Example 020, 1-Methyl-N-(2-methyl-4-(8-methylquinolin-2-yl)phenyl)-1H-pyrazole-5-carboxamide] | < 200
14 | Cc1cc(-c2ccc3cc(F)ccc3n2)ccc1NC(=O)c1ccnnc1 [Example 029, N-(4-(6-fluoroquinolin-2-yl)-2-methylphenyl)pyridazine-4-carboxamide] | 1000 to 10000
15 | COC(=O)Nc1ccc(-c2ccc3cc(F)ccc3n2)cc1C [Example 024, methyl (4-(6-fluoroquinolin-2-yl)-2-methylphenyl)carbamate] | 200 to 500
16 | Cc1cc(-c2ccc3cc(F)ccc3n2)ccc1NC(=O)c1ccncc1 [Example 028, N-(4-(6-fluoroquinolin-2-yl)-2-methylphenyl)isonicotinamide] | 500 to 1000
17 | Cc1cc(-c2ncc3cc(C(F)(F)F)ccc3n2)ccc1N(C)C(=O)N(C)C [Example 129, 1,1,3-trimethyl-3-(2-methyl-4-(6-(trifluoromethyl)quinazolin-2-yl)phenyl)urea] | 200 to 500
18 | CCN(C(=O)c1ccnn1C)c1ccc(-c2ccc3cc(C(F)(F)F)ccc3n2)cc1C [Example 004, N-Ethyl-1-methyl-N-(2-methyl-4-(6-(trifluoromethyl)quinolin-2-yl)phenyl)-1H-pyrazole-5-carboxamide] | < 200
19 | Cc1cc(-c2ccc3cc(C(F)(F)F)ccc3n2)ccc1NC(=O)c1ccnn1C [Example 001, 1-methyl-N-(2-methyl-4-(6-(trifluoromethyl)quinolin-2-yl)phenyl)-1H-pyrazole-5-carboxamide] | 200 to 500
20 | Cc1cc(-c2ccc3c(C(F)(F)F)cccc3n2)ccc1NC(=O)c1ccnn1C [Example 057, 1-methyl-N-(2-methyl-4-(5-(trifluoromethyl)quinolin-2-yl)phenyl)-1H-pyrazole-5-carboxamide] | 200 to 500
21 | Cc1cc(-c2ncc3nc(C(F)(F)F)cc(C)c3n2)ccc1NC(=O)c1ccnn1CCO [Example 172, 1-(2-hydroxyethyl)-N-[2-methyl-4-[8-methyl-6-(trifluoromethyl)pyrido-[3,2-d]pyrimidin-2-yl]phenyl]-1H-pyrazole-5-carboxamide] | < 200
22 | Cc1cc(-c2ccc3cc(F)ccc3n2)c(F)cc1NC(=O)c1ccnn1C [Example 067, N-(5-fluoro-4-(6-fluoroquinolin-2-yl)-2-methylphenyl)-1-methyl-1H-pyrazole-5-carboxamide] | 500 to 1000
23 | Cc1cc(-c2ccc3cc(N)ccc3n2)ccc1NC(=O)c1ccnn1C [Example 075, N-(4-(6-aminoquinolin-2-yl)-2-methylphenyl)-1-methyl-1H-pyrazole-5-carboxamide] | 1000 to 10000
24 | Cc1c(NC(=O)c2ccnn2C)ccc(-c2ncc3nc(C(F)(F)F)ccc3n2)c1C [Example 190, N-(2,3-dimethyl-4-(6-(trifluoromethyl)pyrido[3,2-d]pyrimidin-2-yl)phenyl)-1-methyl-1H-pyrazole-5-carboxamide] | 1000 to 10000
25 | Cc1cc(-c2ccc3cc(F)cc(Br)c3n2)ccc1NC(=O)c1ccnn1C [Example 051, N-(4-(8-bromo-6-fluoroquinolin-2-yl)-2-methylphenyl)-1-methyl-1H-pyrazole-5-carboxamide] | < 200
26 | Cc1cc(N(C)C(=O)c2ccnn2C)c(F)cc1-c1ncc2nc(C(F)(F)F)cc(C)c2n1 [Example 179, N-(2-fluoro-5-methyl-4-(8-methyl-6-(trifluoromethyl)pyrido[3,2-d]pyrimidin-2-yl)phenyl)-N,1-dimethyl-1H-pyrazole-5-carboxamide] | 200 to 500
27 | Cc1cc(-c2ccc3cc(Br)ccc3n2)ccc1NC(=O)c1ccnn1C [Example 064, N-(4-(6-bromoquinolin-2-yl)-2-methylphenyl)-1-methyl-1H-pyrazole-5-carboxamide] | 200 to 500
28 | Cc1c(-c2ncc3nc(C(F)(F)F)ccc3n2)ccc(N(C)C(=O)c2ccnn2C)c1C [Example 191, N-(2,3-dimethyl-4-(6-(trifluoromethyl)pyrido[3,2-d]pyrimidin-2-yl)phenyl)-N,1-dimethyl-1H-pyrazole-5-carboxamide] | 1000 to 10000
